Data reported in ChEMBL document CHEMBL1121678, “Antitumor agents. 44. Bis(helenalinyl) esters and related derivatives as novel potent antileukemic agents” (1981).

Assays:
Format in all cases: functional
[1] = test system: Mus musculus; assay: In vivo antileukemic activity against P-388 lymphocytic leukemia in BDF1 male mice at 5(mg/kg)/day intraperitoneal dose expressed as T/C
[2] = test system: Mus musculus; assay: Antileukemic activity of compound against the P-388 lymphocytic leukemic BDF1 male mice at 5(mg/kg)/day, administered intraperitoneally; 11.8/9.66 (Treated/control)
[3] = test system: Mus musculus; assay: In vivo antileukemic activity against P-388 lymphocytic leukemia in BDF1 male mice at 15(mg/kg)/day intraperitoneal dose expressed as T/C
[4] = test system: Mus musculus; assay: Antileukemic activity of compound against the P-388 lymphocytic leukemic BDF1 male mice at 15(mg/kg)/day, administered intraperitoneally; 11.1/9.66 (Treated/control)
[5] = test system: Mus musculus; assay: In vivo antileukemic activity against P-388 lymphocytic leukemia in BDF1 male mice at 8(mg/kg)/day intraperitoneal dose expressed as T/C
[6] = test system: Mus musculus; assay: In vivo antileukemic activity against P-388 Lymphocytic Leukemia in BDF1 male mice at 25(mg/kg)/day intraperitoneal dose expressed as T/C
[7] = test system: Mus musculus; assay: In vivo antileukemic activity against P-388 Lymphocytic Leukemia in BDF1 male mice at 15(mg/kg)/day intraperitoneal dose expressed as T/C
[8] = test system: Mus musculus; assay: In vivo antileukemic activity against P-388 lymphocytic leukemia in BDF1 male mice at 3(mg/kg)/day intraperitoneal dose expressed as T/C
[9] = test system: Mus musculus; assay: Antileukemic activity of compound against the P-388 lymphocytic leukemic BDF1 male mice at 25(mg/kg)/day, administered intraperitoneally; 12.3/9.66 (Treated/control)
[10] = test system: Mus musculus; assay: Antileukemic activity of compound against the P-388 lymphocytic leukemic BDF1 male mice at 60 mg/kg/day, administered intraperitoneally; 3.0/9.66 (Treated/control); details: route intraperitoneal
[11] = test system: Mus musculus; assay: In vivo antileukemic activity against P-388 Lymphocytic Leukemia in BDF1 male mice at 60 mg/kg/day intraperitoneal dose expressed as T/C
[12] = test system: Mus musculus; assay: Antileukemic activity of compound against the P-388 lymphocytic leukemic BDF1 male mice at 15(mg/kg)/day, administered intraperitoneally; 11.9/9.66 (Treated/control)
[13] = test system: Mus musculus; assay: Antileukemic activity of compound against the P-388 lymphocytic leukemic BDF1 male mice at 8(mg/kg)/day, administered intraperitoneally; 15.7/9.66 (Treated/control)
[14] = test system: Mus musculus; assay: Antileukemic activity of compound against the P-388 lymphocytic leukemic BDF1 male mice at 3(mg/kg)/day, administered intraperitoneally; 12.9/9.66 (Treated/control)
[15] = test system: Mus musculus; assay: In vivo antileukemic activity against P-388 lymphocytic leukemia in BDF1 male mice at 30(mg/kg)/day intraperitoneal dose expressed as T/C
[16] = test system: Mus musculus; assay: Antileukemic activity of compound against the P-388 lymphocytic leukemic BDF1 male mice at 15(mg/kg)/day, administered intraperitoneally; 18.7/9.66 (Treated/control)
[17] = test system: Mus musculus; assay: Antileukemic activity of compound against the P-388 lymphocytic leukemic BDF1 male mice at 8(mg/kg)/day, administered intraperitoneally; 14.0/9.66 (Treated/control)
[18] = test system: Mus musculus; assay: Antileukemic activity of compound against the P-388 lymphocytic leukemic BDF1 male mice at 60 mg/kg/day, administered intraperitoneally; 12.7/9.66 (Treated/control); details: route intraperitoneal
[19] = test system: Mus musculus; assay: Antileukemic activity of compound against the P-388 lymphocytic leukemic BDF1 male mice at 30(mg/kg)/day, administered intraperitoneally; 15.4/9.66 (Treated/control)
[20] = test system: Mus musculus; assay: In vivo antileukemic activity against P-388 lymphocytic leukemia in BDF1 male mice at 60 mg/kg/day intraperitoneal dose expressed as T/C
[21] = test system: Mus musculus; assay: Antileukemic activity of compound against the P-388 lymphocytic leukemic BDF1 male mice at 3(mg/kg)/day, administered intraperitoneally; 13.8/9.66 (Treated/control)
[22] = test system: Mus musculus; assay: Antileukemic activity of compound against the P-388 lymphocytic leukemic BDF1 male mice at 15(mg/kg)/day, administered intraperitoneally; 25.2/9.66 (Treated/control)
[23] = test system: Mus musculus; assay: Antileukemic activity of compound against the P-388 lymphocytic leukemic BDF1 male mice at 30(mg/kg)/day, administered intraperitoneally; 16.2/9.66 (Treated/control)
[24] = test system: Mus musculus; assay: Antileukemic activity of compound against the P-388 lymphocytic leukemic BDF1 male mice at 60 mg/kg/day, administered intraperitoneally; 5.8/9.66 (Treated/control); details: route intraperitoneal
[25] = test system: Mus musculus; assay: Antileukemic activity of compound against the P-388 lymphocytic leukemic BDF1 male mice at 8(mg/kg)/day, administered intraperitoneally; 13.8/9.66 (Treated/control)
[26] = test system: Mus musculus; assay: Antileukemic activity of compound against the P-388 lymphocytic leukemic BDF1 male mice at 25(mg/kg)/day, administered intraperitoneally; 10.6/9.66 (Treated/control)
[27] = test system: Mus musculus; assay: In vivo antileukemic activity against P-388 lymphocytic leukemia in BDF1 male mice at 0.6(mg/kg)/day intraperitoneal dose expressed as T/C
[28] = test system: Mus musculus; assay: Antileukemic activity of compound against the P-388 lymphocytic leukemic BDF1 male mice at 0.6(mg/kg)/day, administered intraperitoneally; 11.0/9.66 (Treated/control)
[29] = test system: Mus musculus; assay: Antileukemic activity of compound against the P-388 lymphocytic leukemic BDF1 male mice at 15(mg/kg)/day, administered intraperitoneally; 9/9.66 (Treated/control)
[30] = test system: Mus musculus; assay: In vivo antileukemic activity against P-388 lymphocytic leukemia in BDF1 male mice at 4(mg/kg)/day intraperitoneal dose expressed as T/C
[31] = test system: Mus musculus; assay: Antileukemic activity of compound against the P-388 lymphocytic leukemic BDF1 male mice at 60 mg/kg/day, administered intraperitoneally; 4.7/9.66 (Treated/control); details: route intraperitoneal
[32] = test system: Mus musculus; assay: Antileukemic activity of compound against the P-388 lymphocytic leukemic BDF1 male mice at 8(mg/kg)/day, administered intraperitoneally; 18.8/9.66 (Treated/control)
[33] = test system: Mus musculus; assay: Antileukemic activity of compound against the P-388 lymphocytic leukemic BDF1 male mice at 2(mg/kg)/day, administered intraperitoneally; 11.5/9.66 (Treated/control)
[34] = test system: Mus musculus; assay: Antileukemic activity of compound against the P-388 lymphocytic leukemic BDF1 male mice at 4(mg/kg)/day, administered intraperitoneally; 16.5/9.66 (Treated/control)
[35] = test system: Mus musculus; assay: Antileukemic activity of compound against the P-388 lymphocytic leukemic BDF1 male mice at 30(mg/kg)/day, administered intraperitoneally; 7/9.66 (Treated/control)
[36] = test system: Mus musculus; assay: In vivo antileukemic activity against P-388 lymphocytic leukemia in BDF1 male mice at 2(mg/kg)/day intraperitoneal dose expressed as T/C

CC1C(=O)O[C@@H]2C[C@@H](C)[C@@H]3CCC(=O)[C@@]3(C)[C@@H](OC(=O)CC(=O)O[C@H]3[C@@H]4C(C)C(=O)O[C@@H]4C[C@@H](C)[C@@H]4CCC(=O)[C@]43C)[C@H]12 (stereo partly drawn)
T/C [1]: 122%
Average survival (days) [2]: 11.8
T/C [3]: 115%
Average survival (days) [4]: 11.1

C=C1C(=O)O[C@@H]2C[C@@H](C)[C@@H]3C=CC(=O)[C@@]3(C)[C@@H](O)[C@H]12 [HELENALIN]
T/C [5]: 162%
T/C [6]: 127%
T/C [7]: 123%
T/C [8]: 134%
Average survival (days) [9]: 12.3
Average survival (days) [10]: 3
T/C [11]: 31%
Average survival (days) [12]: 11.9
Average survival (days) [13]: 15.7
Average survival (days) [14]: 12.9

C[C@@H]1C[C@H]2OC(=O)[C@@H](C)[C@H]2[C@H](OC(=O)CCC(=O)O[C@H]2[C@@H]3[C@H](C)C(=O)O[C@@H]3C[C@@H](C)[C@@H]3C=CC(=O)[C@]32C)[C@]2(C)C(=O)C=C[C@@H]12
T/C [15]: 159%
T/C [5]: 145%
Average survival (days) [16]: 18.7
Average survival (days) [17]: 14
T/C [3]: 194%
Average survival (days) [18]: 12.7
Average survival (days) [19]: 15.4
T/C [20]: 131%

C=C1C(=O)O[C@@H]2C[C@@H](C)[C@@H]3C=CC(=O)[C@@]3(C)[C@@H](OC(=O)CC(=O)O[C@H]3[C@@H]4C(=C)C(=O)O[C@@H]4C[C@@H](C)[C@@H]4C=CC(=O)[C@]43C)[C@H]12
T/C [15]: 168%
T/C [5]: 143%
Average survival (days) [21]: 13.8
Average survival (days) [22]: 25.2
T/C [3]: 261%
T/C [8]: 143%
Average survival (days) [23]: 16.2
Average survival (days) [24]: 5.8
T/C [20]: 60%
Average survival (days) [25]: 13.8

C=C1C(=O)O[C@@H]2C[C@@H](C)[C@@H]3CCC(=O)[C@@]3(C)[C@@H](O)[C@H]12
Average survival (days) [26]: 10.6
T/C [20]: 110%

O=C(O)CC(=O)O [MALONIC ACID]
T/C [27]: 114%
Average survival (days) [28]: 11

C=C1C(=O)O[C@@H]2C[C@@H](C)[C@@H]3C=CC(=O)[C@@]3(C)[C@@H](OC(=O)CCCC(=O)O[C@H]3[C@@H]4C(=C)C(=O)O[C@@H]4C[C@@H](C)[C@@H]4C=CC(=O)[C@]43C)[C@H]12
Average survival (days) [29]: 9
T/C [15]: 72%
T/C [30]: 171%
T/C [5]: 195%
T/C [3]: 93%
Average survival (days) [31]: 4.7
Average survival (days) [32]: 18.8
Average survival (days) [33]: 11.2
Average survival (days) [34]: 16.5
Average survival (days) [35]: 7
T/C [20]: 48%
T/C [36]: 116%
